According to US6599925B2 (Wyeth, priority 2001, dated 2003):
Structures can show the parent of a compound that is named as a salt.

Tests used:
[1] = target: T1, recombinant human plasminogen activator inhibitor-1 (PAI-1) (Homo sapiens, UniProt P05121); assay: Primary Screen for the PAI-1 Inhibition (chromogenic tPA assay); type: biochemical; details: for IC50: footnote b: determined by a modification of the Primary Screen for PAI-1 Inhibition; for inhibition at 25 µM: 25 μM test compound
T1 construct: purchased Molecular Innovations, Royal Oak, Mich
T1 sequence (P05121 24-402): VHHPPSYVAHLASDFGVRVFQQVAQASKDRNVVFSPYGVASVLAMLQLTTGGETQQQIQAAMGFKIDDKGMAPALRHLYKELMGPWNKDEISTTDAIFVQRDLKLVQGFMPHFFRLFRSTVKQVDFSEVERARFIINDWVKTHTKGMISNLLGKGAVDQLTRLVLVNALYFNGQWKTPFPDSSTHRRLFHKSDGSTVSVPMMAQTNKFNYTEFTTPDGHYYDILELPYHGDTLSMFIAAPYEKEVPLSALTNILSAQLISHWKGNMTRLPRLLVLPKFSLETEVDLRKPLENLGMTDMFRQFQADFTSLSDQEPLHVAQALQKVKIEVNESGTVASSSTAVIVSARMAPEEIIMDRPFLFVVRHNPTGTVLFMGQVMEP
Experimental: Primary Screen for the PAI-1 Inhibition
Test compounds are dissolved in DMSO at a final concentration of 10 mM, then diluted 100×in physiologic buffer. The inhibitory assay is initiated by the addition of the test compound (1-100 μM final concentration, maximum DMSO concentration of 0.2%) in a pH 6.6 buffer containing 140 nM recombinant human plasminogen activator inhibitor-1 (PAI-1; Molecular Innovations, Royal Oak, Mich.). Following a 1 hour incubation at room temperature, 70 nM of recombinant human tissue plasminogen activator (tPA) is added, and the combination of the test compound, PAI-1 and tPA is incubated for an additional 30 minutes. Following the second incubation, Spectrozyme-tPA (American Diagnostica, Greenwich, Conn.), a chromogenic substrate for tPA, is added and absorbance read at 405 nm at 0 and 60 minutes. Relative PAI-1 inhibition is equal to the residual tPA activity in the presence of the test compounds and PAI-1. Control treatments include the complete inhibition of tPA by PAI-1 at the molar ratio employed (2:1), and the absence of any effect of the test compound on tPA alone.

melting point | IC50 [1] [µM] | inhibition at 25 µM [1] [%] | SMILES
115 to 117 °C | 6.2 |  | CCCCC(=O)c1c(-c2ccc3c(Br)c(OC(Cc4ccccc4)C(=O)O)ccc3c2)oc2ccccc12 (stereo not drawn) [Example 19, 2-{[1-Bromo-6-(3-pentanoyl-1-benzofuran-2-yl)-2-naphthyl]oxy}-3-phenylpropanoic acid]
163 to 165 °C | 4.39 |  | CCCCCc1c(-c2ccc3cc(OCC(=O)O)ccc3c2)oc2ccccc12 [Example 35, [6-(3-Pentyl-benzofuran-2-yl)-naphthalen-2-yloxy]-acetic acid]
151 to 153 °C | 11.9 |  | CC(C)(C)CC(=O)c1c(-c2ccc3c(Br)c(OCC(=O)O)ccc3c2)oc2ccccc12 [Example 8, 2-({1-Bromo-6-[3-(3,3-dimethylbutanoyl)-1-benzofuran-2-yl]-2-naphthyl}oxy)acetic acid]
150 to 151 °C | 12.7 |  | CCCCC(=O)c1c(-c2ccc3cc(OCc4nnn[nH]4)ccc3c2)oc2ccccc12 [Example 3, 1-{2-[6-(1H-1,2,3,4-Tetraazol-5-ylmethoxy)-2-naphthyl]-1-benzofuran-3-yl}-1-pentanone]
 | 14.7 |  | CC(C)CC(=O)c1c(-c2ccc3c(Br)c(OCC(=O)O)ccc3c2)oc2ccccc12 [Example 7]
178 to 181 °C |  | 49 | O=C(O)COc1ccc2cc(-c3oc4ccccc4c3C(=O)c3ccccc3)ccc2c1 [Example 26, {[6-(3-benzoyl-1-benzofuran-2-yl)-2-naphthyl]oxy}acetic acid]
 | 7.7 |  | CCCCC(=O)c1c(-c2ccc3c(Br)c(OCc4nnn[nH]4)ccc3c2)oc2ccccc12 [Example 1, 1-{2-[5-Bromo-6-(1H-1,2,3,4-tetraazol-5-ylmethoxy)-2-naphthyl]-1-benzofuran-3-yl}-1-pentanone]
178 to 180 °C |  | 39 | CCCCC(=O)c1c(-c2ccc3cc(OCc4nnn[nH]4)ccc3c2)oc2ccc(Cl)cc12 [Example 32, 1-{5-Chloro-2-[6-(1H-tetrazol-5-ylmethoxy)-naphthalen-2-yl]-benzofuran-3-yl}-pentan-1-one]
189 to 191 °C | 6 |  | CCCCC(=O)c1c(-c2ccc3c(-c4ccc(C(F)(F)F)cc4)c(OCc4nnn[nH]4)ccc3c2)oc2ccccc12 [Example 18, 1-(2-{6-(1H-1,2,3,4-Tetraazol-5-ylmethoxy)-5-[4-(trifluoromethyl)phenyl]-2-naphthyl}-1-benzofuran-3-yl)-1-pentanone]
158 to 160 °C | 10.4 |  | CCCCC(=O)c1c(-c2ccc3cc(OCC(=O)O)ccc3c2)oc2ccc(Cl)cc12 [Example 33, [6-(5-Chloro-3-pentanoyl-benzofuran-2-yl)-naphthalen-2-yloxy]-acetic acid]
155 to 156 °C |  | 24 | O=C(O)COc1ccc2cc(-c3oc4ccccc4c3CCC3CCCC3)ccc2c1Br [Example 11, 2-({1-Bromo-6-[3-(2-cyclopentylethyl)-1-benzofuran-2-yl]-2-naphthyl}oxy)acetic acid]
274 to 275 °C (dec.) |  |  | CCCCC(=O)c1c(-c2ccc3c(-c4ccc(C(F)(F)F)cc4)c(OCC(=O)O)ccc3c2)oc2ccccc12 (as salt: sodium) [Example 15, 2-({6-(3-Pentanoyl-1-benzofuran-2-yl)-1-[4-(trifluoromethyl)phenyl]-2-naphthyl}oxy) acetic acid, sodium salt]
140 to 142 °C |  |  | CC(C)CC(=O)c1c(-c2ccc3cc(OCC(=O)O)cc(Br)c3c2)oc2ccccc12 [Example 7]
177 to 178 °C |  |  | O=C(O)COc1ccc2cc(-c3oc4ccccc4c3C(=O)CC3CCCC3)ccc2c1 [Example 10, 2-({6-[3-(2-Cyclopentylacetyl)-1-benzofuran-2-yl]-2-naphthyl}oxy)acetic acid]
206 to 209 °C |  | 56 | O=C(O)C(Cc1ccccc1)Oc1ccc2cc(-c3oc4ccccc4c3Br)ccc2c1Br (stereo not drawn) [Example 28, 2-{[1-Bromo-6-(3-bromo-1-benzofuran-2-yl)-2-naphthyl]oxy}-3-phenylpropanoic acid]
130 to 132 °C |  | 43 | CCCCC(=O)c1c(-c2ccc3cc(OCC(=O)O)ccc3c2)oc2ccccc12 [Example 2, 2-{[6-(3-pentanoyl-1-benzofuran-2-yl)-2-naphthyl]oxy}acetic acid]
130 to 132 °C | 17.1 |  | CCCCC(=O)c1c(-c2ccc3c(Br)c(OCC(=O)O)ccc3c2)oc2ccc(Cl)cc12 [Example 31, [1-Bromo-6-(5-chloro-3-pentanoyl-benzofuran-2-yl)-naphthalen-2-yloxy]-acetic acid]
133 to 135 °C |  | 46 | CCCCC(=O)c1c(-c2ccc3c(Br)c(OCc4nnn[nH]4)ccc3c2)oc2ccc(Cl)cc12 [Example 30, 1-{2-[5-Bromo-6-(1H-tetrazol-5-ylmethoxy)-naphthalen-2-yl]-5-chloro-benzofuran-3-yl}-pentan-1-one]
169 to 171 °C (dec.) |  | 31 | CCCCCc1c(-c2ccc3c(C)c(OCc4nnn[nH]4)ccc3c2)oc2ccccc12 [Example 21, 5-({[1-Methyl-6-(3-pentyl-1-benzofuran-2-yl)-2-naphthyl]oxy}methyl)-1H-1,2,3,4-tetraazole]
146 to 147 °C |  | 47 | CCCCC(=O)c1c(-c2ccc3c(Br)c(OCC(=O)O)ccc3c2)oc2ccccc12 [Example 5, 2-{[1-Bromo-6-(3-pentanoyl-1-benzofuran-2-yl)-2-naphthyl]oxy}acetic acid]
192 to 194 °C |  |  | Brc1c(OCc2nnn[nH]2)ccc2cc(-c3oc4ccccc4c3CCC3CCCC3)ccc12 [Example 12, 5-[({1-Bromo-6-[3-(2-cyclopentylethyl)-1-benzofuran-2-yl]-2-naphthyl}oxy)methyl]-1H-1,2,3,4-tetraazole]
> 183 °C (dec.) |  | 35 | O=C(c1ccccc1)c1c(-c2ccc3c(Br)c(OCc4nnn[nH]4)ccc3c2)oc2ccccc12 [Example 27, {2-[5-Bromo-6-(1H-tetraazol-5-ylmethoxy)-2-naphthyl]-1-benzofuran-3-yl}(phenyl) methanone]
 | 4.59 |  | CCCCCc1c(-c2ccc3c(Br)c(OCc4nn[nH]n4)ccc3c2)oc2ccccc12 [Example 37]
